Legend:
α7-nAChRs [1] = target: T1, α7-nAChRs (Rattus norvegicus, UniProt Q05941); assay: Binding test at α7-nAChRs
α7-nAChRs [2] = target: T1, α7-nAChRs; assay: Binding test at α7*-nAChRs; conditions: endogenous receptors prepared from rat forebrain
BALB/cJ male mice = assay: Mouse forced swim test; conditions: vs vehicle
α2β2 = α2β2 (Rattus norvegicus, UniProt P12389+P12390); assay: [3H]epibatidine competition binding, rat α2β2 nAChR; conditions: read-out: Ki α2β2, ± SEM
human α7-nAChRs = conditions: read-out: Ki human α7-nAChRs; cited from earlier work
[3] = 5, 10, and 30 mg/kg ip, 30 min before 6 min trial

**Q.** Which results are given for OCCc1cc(-c2cncc(OC[C@@H]3CCN3)c2)on1 [Compound 13, 2-[5-[5-((S)Azetidin-2-ylmethoxy)-3-pyridinyl]-3-isoxazolyl]ethanol]?
**A.** activity at α7-nAChRs (α7-nAChRs [1]): no activity; activity at α7*-nAChRs (α7-nAChRs [2]): no activity

**Q.** With FC(F)CCc1cc(-c2cncc(OC[C@@H]3CCN3)c2)on1 [Compound 25, 3-(2(S)-Azetidinylmethoxy)-5-[3-(3,3-difluoropropyl)-5-isoxazolyl]pyridine] as the compound, how does the “activity at α7-nAChRs” value (α7-nAChRs [1]) read?
**A.** The value was “no activity”.

**Q.** What about the “activity at α7*-nAChRs” value (α7-nAChRs [2]) of the same compound?
**A.** The value was “no activity”.

**Q.** And the “immobility in the mouse forced swim test” value (BALB/cJ male mice; [3])?
**A.** The value was “reduced immobility”.

**Q.** With FCCCc1cc(-c2cncc(OC[C@@H]3CCN3)c2)on1 [Compound 26, 3-(2(S)-Azetidinylmethoxy)-5-[3-(3-fluoropropyl)-5-isoxazolyl]pyridine] as the compound, how does the “immobility in the mouse forced swim test” value (BALB/cJ male mice; [3]) read?
**A.** Its value is “reduced immobility”.

**Q.** With c1ncc(-c2cc(CCN3CCOCC3)no2)cc1OC[C@@H]1CCN1 [Compound 27, 4-[2-[5-[5-(2(S)-Azetidinylmethoxy)-3-pyridinyl]-3-isoxazolyl]ethyl]morpholine] as the compound, how does the Ki (α2β2) read?
**A.** The Ki was 12.3 ± 2.1 nM.

**Q.** For c1ncc(-c2cc(CCN3CCOCC3)no2)cc1OC[C@@H]1CCCN1 [Compound 28, 4-[2-[5-[5-(2(S)-Pyrrolidinylmethoxy)-3-pyridinyl]-3-isoxazolyl]ethyl]morpholine], which Ki (α2β2) is on record?
**A.** The Ki was 74 ± 13 nM.

**Q.** Which “activity at α7-nAChRs” value (α7-nAChRs [1]) does the source give for CCc1cc(-c2cncc(OC[C@@H]3CCN3)c2)on1 [Compound 38, 3-(2(S)-Azetidinylmethoxy)-5-(3-ethyl-5-isoxazolyl)pyridine] here?
**A.** The value was “no activity”.

**Q.** And the “activity at α7*-nAChRs” value (α7-nAChRs [2])?
**A.** Its value is “no activity”.

**Q.** What about the “immobility in the mouse forced swim test” value (BALB/cJ male mice; 1, 3, 5, 10, and 30 mg/kg ip, 30 min before 6 min trial) of the same compound?
**A.** Its value is “reduced immobility”.

**Q.** With c1cncc(OC[C@@H]2CCN2)c1 [Compound A-85380, 3-(2(S)-azetidinylmethoxy) pyridine] as the compound, how does the Ki (human α7-nAChRs) read?
**A.** Its Ki is 148 nM.

**Q.** For CN[C@H]1CC[C@@H](c2ccc(Cl)c(Cl)c2)c2ccccc21 [sertraline, reference compound], which “immobility in the mouse forced swim test” value (BALB/cJ male mice; 20 mg/kg ip, positive control) is on record?
**A.** The value was “expected decrease in immobility”.
